Legend:
Kgp = Kgp (Porphyromonas gingivalis, UniProt P72197); assay: Lysine gingipain (Kgp) fluorogenic inhibition assay; format: biochemical
Protocol: The capacities of compounds of the present invention to inhibit the activity of lysine gingipain were measured in a fluorogenic assay similar to those described in Barret Biochemical Journal. 1980, 187(3), 909. The specific assay conditions were as follows. Buffer: pH=7.5, 100 mM Tris-HCl, 75 mM NaCl, 2.5 mM CaCl2, 10 mM cysteine, 1% DMSO after all additions. Protein: 0.1 nM Kgp, isolated from culture of Porphyromonas gingivalis, as described in Pike et al. J. Biol. Chem. 1994, 269(1), 406, and Potempa and Nguyen. Current Protocols in Protein Science. 2007, 21.20.1-21.20.27. Fluorogenic substrate: 10 uM Z-His-Glu-Lys-MCA. Time=90 minutes. Temperature=37° C. Each compound: 10 concentrations, starting at either 100 uM or 100 nM, with lower concentrations generated by serial 3-fold dilutions. By testing a range of concentrations for each compound, the concentration required to inhibit the activity of lysine gingipain by 50% (the “IC50”) was determined. Under the described assay conditions, signal-to-noise was excellent, and Z factor was greater than 0.6.

SHSY5Y cells = assay: P. gingivalis-induced toxicity in SHSY5Y cells; format: cell-based; conditions: in vitro, compared to moxifloxacin

`NCCCC[C@H](NC(=O)C1CCCC1)C(=O)COc1c(F)c(F)cc(F)c1F` [Compound 43, N-[(1S)-5-amino-1-[2-(2,3,5,6-tetrafluorophenoxy)acetyl]pentyl]cyclo-pentanecarboxamide] was tested, and the IC50 (Kgp; Kgp IC50 average, 0.1 nM Kgp, 10 uM Z-His-Glu-Lys-MCA, 90 minutes, 37° C.) was less than 1 nM, the “Kgp IC50 (in words)” value (Kgp; irreversible covalent inhibitor) was “sub-nanomolar” and the “protection of SHSY5Y cells from P. gingivalis-induced toxicity” value (SHSY5Y cells) was “protects SHSY5Y cells”.
